Measurements published in EP0356739B1, “Recombinant DNA, microorganism carrying said recombinant DNA, and process for producing L-amino acids by the use of said microorganism” (AJINOMOTO CO., INC., priority 1988, dated 1990).

Tests used:
[1] = test system: acetohydroxy acid synthase; test: Acetohydroxy acid synthase activity of crude enzyme solution from transformant AJ12403/pAJ220V3, with amino acid added (feedback inhibition); format: biochemical, Brevibacterium lactofermentum; settings: Amino acid added (5mM); crude enzyme of strain AJ12403/pAJ220V3; 65mM phosphate buffer, 100mM sodium pyruvate
Text: (§1) In order to confirm that the DNA donor strain or transformant imparted with resistance to antagonist contains a mutant-type gene that codes for acetohydroxy acid synthase with reduced feedback inhibition by L-valine, L-leucine or L-isoleucine, it is necessary to prepare an enzyme solution from that antagonist-resistant strain or transformant, to allow this solution to act upon pyruvic acid ( as substrate ) in the presence of L-valine, L-leucine or L-isoleucine, and to measure the amount of 2-acetolactic acid formed.
(§2) A strain being tested was cultivated in production medium (A) for about 18 hours, the grown cells were ultrasonicated, and the resulting solution was centrifuged at 15,000 r.p.m. for 20 minutes.
(§3) The supernatant thus obtained was used as a crude enzyme solution, which was added to a solution containing 65mM phosphate buffer and 100mM sodium pyruvate to effect enzymic reaction. Acetolactic acid thus formed was converted to acetoin, and the color developed by addition of 2-naphthol was measured at 530 nm.

[2] = test system: acetohydroxy acid synthase; test: Acetohydroxy acid synthase activity of crude enzyme solution from wild-type strain ATCC13869, with amino acid added (feedback inhibition); format: biochemical, Brevibacterium lactofermentum; settings: Amino acid added (5mM), 65mM phosphate buffer, 100mM sodium pyruvate
Text: as §1, §2, §3

## CC[C@H](C)[C@H](N)C(=O)O [L-Ile, L-isoleucine]
[1]
  relative activity values (%) when the activity in the absence of amino acid is taken as 100: 101%
[2]
  relative activity values (%) when the activity in the absence of amino acid is taken as 100: 60%

## CC(C)C[C@H](N)C(=O)O [L-Leu, L-leucine]
[1]
  relative activity values (%) when the activity in the absence of amino acid is taken as 100: 119%
[2]
  relative activity values (%) when the activity in the absence of amino acid is taken as 100: 67%

## CC(C)[C@H](N)C(=O)O [L-Val, L-valine]
[1]
  relative activity values (%) when the activity in the absence of amino acid is taken as 100: 108%
[2]
  relative activity values (%) when the activity in the absence of amino acid is taken as 100: 60%
